Legend:
Laodelphax striatellus [1] = test: Insecticidal activity againstLaodelphax striatella N (small brown planthopper) treated topically after 24 hr in presence of 20 ng/insect of […]; assay type: functional; settings: topical
Laodelphax striatellus [2] = test: Drug penetration inLaodelphax striatella S (small brown planthopper) at 0.1 ng/insect treated topically after 1 hr; assay type: ADME, organism-based; settings: in vivo, topical_or_ocular
Laodelphax striatellus [3] = test: Insecticidal activity againstLaodelphax striatella S (small brown planthopper) treated topically after 24 hr; assay type: functional; settings: topical
Laodelphax striatellus [4] = test: Insecticidal activity againstLaodelphax striatella N (small brown planthopper) treated topically after 24 hr in presence of 2 ng/insect of tributylphosportrithioate; assay type: functional; settings: topical
Laodelphax striatellus [5] = test: Insecticidal activity againstLaodelphax striatella N (small brown planthopper) treated topically after 24 hr in presence of 40 ng/insect of piperonylbutoxide; assay type: functional; settings: topical
Laodelphax striatellus [6] = test: Insecticidal activity againstLaodelphax striatella N (small brown planthopper) treated topically after 24 hr; assay type: functional; settings: topical
Laodelphax striatellus [7] = test: Drug penetration inLaodelphax striatella N (small brown planthopper) at 0.1 ng/insect treated topically after 1 hr; assay type: ADME, organism-based; settings: in vivo, topical_or_ocular

Molecule `O=[N+]([O-])NC1=NCCN1Cc1ccc(Cl)nc1` [IMIDACLOPRID] has an LD50 (Laodelphax striatellus [1]) of 1.19 mg/kg, a Drug uptake (Laodelphax striatellus [2]) of 20% and an LD50 (Laodelphax striatellus [3]) of 0.12 mg/kg. For the same molecule, the LD50 (Laodelphax striatellus [4]) was 1.06 mg/kg, the LD50 (Laodelphax striatellus [5]) was 1.11 mg/kg and the LD50 (Laodelphax striatellus [6]) was 2.17 mg/kg. For the same molecule, the Drug uptake (Laodelphax striatellus [7]) was 20%.
